BindingDB's records for doi:10.1021/jm00003a020 (University of Washington, 1995)

Assay: Inhibitory concentration was determined against delta-opioid receptor using [3H]- DPDPE radioligand

SMILES | IC50
Oc1ccc2c3c1O[C@H]1[C@H](OCc4ccc(N=C=S)cc4)CC[C@@]4(O)C(C2)N(CC2CC2)CCC314 (stereo partly drawn) [4-cyclopropylmethyl-14-(4-isothiocyanatobenzyloxy)-(1S,13R,14R,17S)-12-oxa-4-azapentacyclo[9.6.1.01,13.05,17.07,18]octadeca-7,9,11(18)-triene-10,17-diol(p-NCS)] | 35 nM
Oc1ccc2c3c1O[C@H]1[C@H](OCc4cccc(CN=C=S)c4)CC[C@@]4(O)C(C2)N(CC2CC2)CCC314 (stereo partly drawn) [4-cyclopropylmethyl-14-(3-isothiocyanatomethylbenzyloxy)-(1S,13R,14R,17S)-12-oxa-4-azapentacyclo[9.6.1.01,13.05,17.07,18]octadeca-7,9,11(18)-triene-10,17-diol(m-CH2NCS)] | 12 nM
Oc1ccc2c3c1O[C@H]1[C@H](OCc4ccccc4CN=C=S)CC[C@@]4(O)C(C2)N(CC2CC2)CCC314 (stereo partly drawn) [4-cyclopropylmethyl-14-(2-isothiocyanatomethylbenzyloxy)-(1S,13R,14R,17S)-12-oxa-4-azapentacyclo[9.6.1.01,13.05,17.07,18]octadeca-7,9,11(18)-triene-10,17-diol(o-CH2NCS)] | 22 nM
Oc1ccc2c3c1O[C@H]1[C@H](OCc4cccc(N=C=S)c4)CC[C@@]4(O)C(C2)N(CC2CC2)CCC314 (stereo partly drawn) [4-cyclopropylmethyl-14-(3-isothiocyanatobenzyloxy)-(1S,13R,14R,17S)-12-oxa-4-azapentacyclo[9.6.1.01,13.05,17.07,18]octadeca-7,9,11(18)-triene-10,17-diol(m-NCS)] | 6.5 nM
Oc1ccc2c3c1O[C@H]1[C@H](OCc4ccccc4N=C=S)CC[C@@]4(O)C(C2)N(CC2CC2)CCC314 (stereo partly drawn) [4-cyclopropylmethyl-14-(2-isothiocyanatobenzyloxy)-(13R,14R,17S)-12-oxa-4-azapentacyclo[9.6.1.01,13.05,17.07,18]octadeca-7,9,11(18)-triene-10,17-diol(o-NCS)] | 1.8 nM
